What was measured:
NIH-3T3 cells = assay: Toxicity to NIH-3T3 cells; format: cell-based
A549 cells [1] = assay: Trypan blue dye exclusion assay, A549; format: cell-based; conditions: Homo sapiens, A549, 48 h; read-out: IC50 value (μM) against A549 cells, Trypan blue assay
Protocol: (§1) Breast cancer cells (MCF-7), lung cancer cells (A549), Hela cells, and peripheral blood mononuclear cells (PBMC) were purchased from the National Center for Cell Sciences (NCCS), Pune, India. The cancer cells were maintained in Dulbecco's modified eagles medium (DMEM), supplemented with 2 mM 1-glutamine and balanced salt solution (BSS), adjusted to contain 1.5 g/L Na2CO3, 0.1 mM nonessential amino acids, 1 mM sodium pyruvate, 2 mM 1-glutamine, 1.5 g/L glucose, 10 mM (4-(2-hydroxyethyl)-1-piperazineethane sulfonic acid) (HEPES), and 10% fetal bovine serum (GIBCO, USA). Penicillin and streptomycin (100 IU/100 μg) were adjusted to 1 mL/L. The cells were maintained at 37° C. with 5% CO2 in a humidified CO2 incubator.
(§2) The cytotoxic effects of synthesized compounds on various types of cancer cells were determined by trypan blue dye exclusion assay. The cultured cells were treated with the synthesized compounds and incubated for 48 h. After the incubation period, the cells were detached by 0.5% trypan-EDTA solution, harvested by centrifugation at 3000 rpm for 5 minutes and diluted in 1 ml of PBS. […] About 20 μl of cell suspensions were carefully and continuously filled in the haemocytometer chamber and viable cells were counted in 1×1 mm squares, four chambers and the average number of cells per square determined. Total viable cells were determined using the following formula, […]

A549 cells [2] = assay: MTT cell viability assay, A549; format: cell-based; conditions: Homo sapiens, A549, 48 h; read-out: IC50 value (μM) against A549 cells, MTT assay
Protocol: as §1
(§3) The inhibitory concentration (IC50) value was evaluated using an MTT [3-(4,5-dimethylthiazol-2-yl)-2,5-diphenyltetrazolium bromide] assay. Cancer cells were grown (1×10^4 cells/well) in a 96-well plate for 48 h to 75% confluence. The medium was replaced with fresh medium containing serially diluted synthesized compounds, and the cells were further incubated for 48 h. The culture medium was removed, and 100 μL of the MTT [3-(4,5-dimethylthiozol-2-yl)-3,5-diphenyl tetrazolium bromide] (Hi-Media, Mumbai, India) solution was added to each well and incubated at 37° C. for 4 h. […] The optical density was measured at 620 nm in an ELISA multiwell plate reader (Thermo Multiskan EX, USA). […]

PBMC cells [3] = assay: Trypan blue dye exclusion assay, PBMC; format: cell-based, human; conditions: 48 h, read-out: IC50 value (μM) against PBMC cells, Trypan blue assay
Protocol: as §1, §2

PBMC cells [4] = assay: MTT cell viability assay, PBMC; format: cell-based, human; conditions: 48 h, read-out: IC50 value (μM) against PBMC cells, MTT assay
Protocol: as §1, §3

MCF-7 cells [5] = assay: MTT cell viability assay, MCF-7; format: cell-based; conditions: Homo sapiens, MCF7; MCF-7, 48 h; read-out: IC50 value (μM) against MCF-7 cells, MTT assay
Protocol: as §1, §3

Hela cells [6] = assay: MTT cell viability assay, Hela; format: cell-based; conditions: Homo sapiens, 48 h, read-out: IC50 value (μM) against Hela cells, MTT assay
Protocol: as §1, §3

Hela cells [7] = assay: Trypan blue dye exclusion assay, Hela; format: cell-based; conditions: Homo sapiens, 48 h, read-out: IC50 value (μM) against Hela cells, Trypan blue assay
Protocol: as §1, §2

EAC cells [8] = assay: MTT cell viability assay, EAC; format: cell-based, mouse; conditions: 48 h, read-out: IC50 value (μM) against EAC cells, MTT assay
Protocol: (§4) The inhibitory concentration (IC50) value was evaluated using an MTT [3-(4,5-dimethylthiazol-2-yl)-2,5-diphenyltetrazolium bromide] assay. Cancer cells were grown (1×10^4 cells/well) in a 96-well plate for 48 h to 75% confluence. The medium was replaced with fresh medium containing serially diluted synthesized compounds, and the cells were further incubated for 48 h. The culture medium was removed, and 100 μL of the MTT [3-(4,5-dimethylthiozol-2-yl)-3,5-diphenyl tetrazolium bromide] (Hi-Media, Mumbai, India) solution was added to each well and incubated at 37° C. for 4 h. After removal of the supernatant, 50 μL of DMSO was added to each of the wells and incubated for 10 min to solubilize the formazan crystals. The optical density was measured at 620 nm in an ELISA multiwell plate reader (Thermo Multiskan EX, USA). The OD value was used to calculate the percentage of viability using the following formula.

[9] = tested on: EAC induced angiogenesis in peritoneum; assay: Peritoneal angiogenesis assay; format: in vivo, Swiss albino mice
Protocol: (§5) The effect of potent synthesized compound BAMC on the modulation of neovessel and tumor growth was verified in EAC bearing animals. The EAC tumor bearing mice were grouped separately at two different concentrations (25 and 50 mg/Kg, b.w/i.p) of potent synthesized compounds and individually the groups were treated using a 26 gauge needle. Then, after the onset of tumor on the 4th day, three doses were given on every alternative day. The growth of the tumor was monitored by taking the body weight of the animals every day. Then, control animals were injected with 0.2 ml of saline (i.p) on every alternative day. In each treatment, at least six mice were taken and each experiment was repeated thrice. After the completion of treatment, the animals from each group were sacrificed on the 10th day and the EAC cells along with ascites fluid were harvested and the quantity was recorded. The peritoneum of the mice was cut open and the inner lining of the peritoneal cavity was examined for angiogenesis (vasculature) in compound-treated, tumor bearing mice. Finally, the inner lining of normal mice was also examined for vasculature and photographed using Sony steady shot DSC-W610 camera. These sets of animals were used to study the survivability analysis after treatment until their death.

cancer cells = assay: MTT and trypan blue assays, overall IC50; format: cell-based; conditions: read-out: anti-angiogenesis effect, IC50 values
Protocol: as §4
The cytotoxic effects of synthesized compounds on various types of cancer cells were determined by trypan blue dye exclusion assay. […] About 20 μl of cell suspensions were carefully and continuously filled in the haemocytometer chamber and viable cells were counted in 1×1 mm squares, four chambers and the average number of cells per square determined. Total viable cells were determined using the following formula, […]

MCF-7 cells [10] = assay: Trypan blue dye exclusion assay, MCF-7; format: cell-based; conditions: Homo sapiens, MCF7; MCF-7, 48 h; read-out: IC50 value (μM) against MCF-7 cells, Trypan blue assay
Protocol: as §1, §2

EAC cells [11] = assay: Trypan blue dye exclusion assay, EAC; format: cell-based, mouse; conditions: 48 h, read-out: IC50 value (μM) against EAC cells, Trypan blue assay
Protocol: The cytotoxic effects of synthesized compounds on various types of cancer cells were determined by trypan blue dye exclusion assay. The cultured cells were treated with the synthesized compounds and incubated for 48 h. After the incubation period, the cells were detached by 0.5% trypan-EDTA solution, harvested by centrifugation at 3000 rpm for 5 minutes and diluted in 1 ml of PBS. Then, 10 μl of trypan blue dye solution was added to each sample and cells were re-suspended. About 20 μl of cell suspensions were carefully and continuously filled in the haemocytometer chamber and viable cells were counted in 1×1 mm squares, four chambers and the average number of cells per square determined. Total viable cells were determined using the following formula,
The values were plotted in MS excel version 8.1, graphed and the inhibitory concentration-50 (IC50) values were estimated.

EAC tumor = assay: In vivo EAC ascites tumor growth; conditions: for decrease of tumor volume, % of inhibition: three doses on alternate days
Protocol: The EAC tumor was obtained from Mahajana Education Center, BOC, in Biotechnology. Microbiology& Biochemistry Mahajana College, Mysore University, Mysore, Karnataka, India, and the same was induced into adult Swiss albino mice i.p and left for the growth.
The EAC tumor bearing mice (donor) were taken on the 12th day after tumor transplantation and the ascites fluid was drawn using an 18 gauge needle into a sterile syringe. Then the tumor cell viability was tested by trypan blue exclusion assay and the cells were counted using a haemocytometer. The ascites fluid was suitably diluted to get a concentration of 5×10^6/0.2 ml of tumor cell suspension. This was injected into the i.p cavity of Swiss mice to obtain ascites tumor and the process was repeated every 12 days.
Ascites tumor was obtained by injecting 5×10^6 viable tumor cells into i.p cavity of Swiss mice. Tumor growth was followed by recording the animal weights. These cells grew in the peritoneum of mice, forming an ascites tumor with enormous abdominal swelling and showing a profound increase in body weight. The EAC cells began their exponential growth phase from the 7th day after tumor cell injection and the animals succumbed to the ascites tumor burden between 16 to 20 days after injection of tumor cells.
as §5

A549 cells [12] = assay: Cancer cell migration (scratch wound) assay; format: cell-based; conditions: Homo sapiens, 48 h
Protocol: The A549 cells were cultured in a six well plate until they reached a confluence of 60-70%. A scratch was made to form a wound using a micropipette tip and the monolayer was washed with growth medium. Then, 2 ml medium containing different concentrations of test drugs was added to the respective wells, incubated for 48 h, fixed with chilled 70% ethanol and stained with crystal violet (0.4 g/l). Images were taken from random fields at regular time intervals using an inverted microscope (Bresser, Biolux). Finally, the percentage of cell migration was calculated by comparing the final gap width to initial gap width.

caspase-3 = assay: Caspase-3 colorimetric assay; format: cell-based, human
Protocol: Using CPP32/Caspase-3 Colorimetric Assay Kit, the activated caspase was estimated as per manufacturer's protocol. The buffers used in the experiment were those supplied along with the kit. A549 cells (8×10^5 per 12.5 cm^2 culture flasks) were seeded with their respective growth medium and incubated for 24 h at 37° C. with/without 5% CO2. Then, confluent cells were added with the respective drug medium while maintaining an untreated group as a control. Cultures were incubated for 6 h, maintaining the same conditions, 0.1 mM Hydrogen Peroxide (H2O2) and 10 μM standard drug were used as positive control for activation of caspase-3. After treatment incubation, the detached cells in the supernatant were collected, and the adherent cells were trypsinized to add into the respective tubes. Subsequently, tubes were centrifuged at 1500 rpm for 10 min to acquire a cell pellet. […] The […] was transferred to fresh tubes and the protein concentrations of samples were determined by employing Bradford assay. […] Post-incubation, the plate was read at 405 nm in a Dynex Opsys MRTM Microplate Reader (Dynex Technologies, VA, USA). Percentage caspase-3 activation was calculated using the following formula: % Caspase-3 activation=[(At−Ac)/Ac]×100
“At” represents the mean absorbance of test wells and “Ac” represents the mean absorbance of the control wells.

[13] = tested on: genomic DNA of cancer cells; assay: DNA fragmentation assay (apoptotic ladder); format: cell-based; conditions: treated vs untreated cells
Protocol: DNA damaging studies were carried out according to previously described methods. The DNA damaging activity of the compound on genomic DNA of both control and treated cells were evaluated by Phenol:Chloroform method. Briefly, the cells were first lysed using lysis buffer (50 mM Tris-Hcl, 0.5% SDS, pH 8.0) and incubated for 30 minutes at […]. The cell lysate was precipitated by using potassium acetate (8M) and incubated at 4° C. for 1 hr. The supernatant was mixed with phenol:Chloroform:isoamylalcohol at 25:24:1 ratio. This step was repeated thrice. DNA was precipitated by adding ice cold alcohol and precipitated DNA was air dried and dissolved by using appropriate amounts of TE Buffer (pH 8.0). Precipitated DNA was subjected to RNase digestion (2 μg/mL) for 1 hr at 37° C. The obtained DNA was quantified by using nanodrop (Eppendrof Ag 22331 Hamburg 6135EM402331) and equal amounts of (50 μg) of DNA were loaded to 1% agarose gel, observed under uv-trans illuminator, and documented.

MCF-7 cells [14] = assay: Colony formation assay; format: cell-based, human; conditions: 5, 10, 20 μM, 6 hours pretreatment, 12 days
Protocol: Long-term effects of the active compound were determined by colony formation with minor modifications. […] Surviving colonies were fixed and stained by using 0.5% crystal violet. Visible colonies were observed and colonies were counted and photographed.

In the case of Cc1ccccc1OCC(=O)NNC(=O)C1CN(Cc2ccccc2)CCO1 (centres unmarked) [BAMC, 4-Benzyl-N′-(2-(o-tolyloxy)acetyl) morpholine-2-carbohydrazide], the “toxicity to NIH-3T3 cells” value (NIH-3T3 cells) is reported as ~97 µM, the IC50 (A549 cells [1]) is reported as 5.8 ± 0.7 µM and the IC50 (A549 cells [2]) is reported as 5.6 ± 1 µM. It also gave an IC50 (PBMC cells [3]; Homo sapiens) of 85.7 ± 0.7 µM, an IC50 (PBMC cells [4]; Homo sapiens) of 89.9 ± 3.5 µM and an IC50 (MCF-7 cells [5]) of 4.5 ± 2 µM. It also gave an IC50 (Hela cells [6]) of 4.9 ± 0.2 µM, an IC50 (Hela cells [7]) of 5.2 ± 1.3 µM and an IC50 (EAC cells [8]; Mus musculus) of 6.7 ± 1.8 µM. The “regression of EAC induced angiogenesis in peritoneum” value ([9]; first value of 'respectively' (25 mg/kg)) was 40%, the “regression of EAC induced angiogenesis in peritoneum” value ([9]; second value of 'respectively' (50 mg/kg)) was 15% and the IC50 (cancer cells) was ~5.5 µM. The IC50 (MCF-7 cells [10]) was 4.6 ± 1.1 µM, the IC50 (EAC cells [11]; Mus musculus) was 6.8 ± 1.4 µM and the “decrease of tumor volume, % of inhibition” value (EAC tumor; EAC mice, 25 mg/kg bw i.p.) was 74.35%. For the same compound, the “decrease of tumor volume, % of inhibition” value (EAC tumor; EAC mice, 50 mg/kg bw i.p.) was 80.2%, the “adverse effect on normal lymphoid organs (morphology of kidney, liver, spleen)” value (EAC tumor; EAC mice, 25 and 50 mg/kg) was “did not show any symptoms of adverse effect” and the cell density reduction (EAC tumor; EAC mice, 25 and 50 mg/kg, concentration dependent) was “six fold reduction”. The “body weight of tumor bearing mice” value (EAC tumor; EAT bearing mice, treated vs control) was “significant decrease in body weight”, the inhibition at 10 µM (A549 cells [12]; A549, 10 μM) was 13% and the inhibition at 20 µM (A549 cells [12]; A549, 20 μM) was 72.3%. For the same compound, the “percentage of caspase-3 activation” value (caspase-3; MCF-7, BAMC concentration not stated) was 84.5%, the “DNA fragmentation (apoptotic ladder), agarose gel” value [13] was “typical “ladder (A)” formation of DNA” and the “colony formation (colonogenic efficiency)” value (MCF-7 cells [14]) was “visibly diminished the colonogenic efficiency of MCF-7 cells”.
N.N.[Cl][Pt][Cl] [Cisplatin, reference compound] showed an IC50 (PBMC cells [3]) of 96.1 ± 0.8 µM, an IC50 (PBMC cells [4]) of 91.4 ± 1.1 µM and an IC50 (EAC cells [8]) of 4.9 ± 1.1 µM. It also gave an IC50 (EAC cells [11]) of 4.4 ± 1.3 µM.
In the case of OO [H2O2, Hydrogen Peroxide, reference compound], the “percentage of caspase-3 activation” value (caspase-3; MCF-7, 0.1 mM, positive control) is reported as 91.1%.
